One assay has as its target EGFR (mouse) (UniProt P00533). The following applies: nih3t3.
For a further assay, the target named is EGFR (UniProt P00533).
Another assay has as its target CDK2 (UniProt P24941). Nature of the assay: Enzyme Assay.

Where only a bound is given, the exact number is not on record here.

Chain of EGFR (P00533 whole entry, looked up): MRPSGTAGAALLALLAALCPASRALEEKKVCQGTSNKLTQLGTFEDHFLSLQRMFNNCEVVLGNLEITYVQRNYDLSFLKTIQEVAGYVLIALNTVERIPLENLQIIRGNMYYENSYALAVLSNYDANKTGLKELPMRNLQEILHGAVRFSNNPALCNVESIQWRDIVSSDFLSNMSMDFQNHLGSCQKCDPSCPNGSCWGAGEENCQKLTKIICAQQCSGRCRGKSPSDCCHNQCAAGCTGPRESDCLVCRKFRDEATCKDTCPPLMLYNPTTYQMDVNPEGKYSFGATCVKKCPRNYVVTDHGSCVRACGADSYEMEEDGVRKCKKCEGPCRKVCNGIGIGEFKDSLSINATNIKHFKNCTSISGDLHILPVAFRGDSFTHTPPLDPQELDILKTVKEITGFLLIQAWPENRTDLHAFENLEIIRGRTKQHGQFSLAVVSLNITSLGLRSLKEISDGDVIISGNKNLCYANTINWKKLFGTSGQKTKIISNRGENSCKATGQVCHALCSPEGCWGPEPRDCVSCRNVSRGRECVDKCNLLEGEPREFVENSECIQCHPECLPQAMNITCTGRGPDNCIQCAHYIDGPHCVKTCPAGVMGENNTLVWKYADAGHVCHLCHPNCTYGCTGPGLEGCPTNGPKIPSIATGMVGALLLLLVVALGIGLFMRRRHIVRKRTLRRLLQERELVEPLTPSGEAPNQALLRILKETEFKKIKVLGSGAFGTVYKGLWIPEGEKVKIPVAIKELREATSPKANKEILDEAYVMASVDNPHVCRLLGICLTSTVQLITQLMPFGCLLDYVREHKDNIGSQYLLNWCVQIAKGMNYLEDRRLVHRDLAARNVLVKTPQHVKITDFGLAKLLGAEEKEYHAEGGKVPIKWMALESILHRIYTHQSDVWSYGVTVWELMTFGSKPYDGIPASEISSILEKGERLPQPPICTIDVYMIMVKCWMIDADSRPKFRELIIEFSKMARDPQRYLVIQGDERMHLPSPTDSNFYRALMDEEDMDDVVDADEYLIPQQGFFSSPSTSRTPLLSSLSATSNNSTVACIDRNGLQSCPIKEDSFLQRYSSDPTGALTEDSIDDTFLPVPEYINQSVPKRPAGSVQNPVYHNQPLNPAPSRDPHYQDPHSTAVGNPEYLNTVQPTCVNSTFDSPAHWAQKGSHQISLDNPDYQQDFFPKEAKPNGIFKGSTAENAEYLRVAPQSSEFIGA

Regarding `Cc1cc(/C=C2/C(=O)Nc3ccccc32)c(C)c2c1[nH]c1ccccc12`, the IC50 – broadly, the midpoint of a concentration-inhibition curve – in the assay with EGFR (mouse) is more than 100 µM; at EGFR, 7.03 µM.

Consider `Cc1cccc2c1/C(=C\c1c[nH]cn1)C(=O)N2`, for which, on CDK2, the IC50 was determined as 1.1 µM.

The values above are taken from the Kinase Knowledgebase extract (Sharma et al. 2016).
